Experimental data as given in patent publication US8039483B2, “Quinuclidine carbonate salts and medicinal composition thereof” (Chiesi Farmaceutici S.p.A., priority 2008, dated 2011).

Legend:
[1] = Plasma stability in rat plasma; format: in vitro ADME; settings: 37° C.
Protocol: (§1) Briefly 10 μl of a stock solution 250 μM of compound 1 in acetonitrile were added to 1 ml of rat and human plasma, and samples were incubated at 37° C. Plasma (50 μL) was taken after 0, 1 and 5 hours of incubation and added to 140 μl of acetonitrile with addition of verapamil as internal standard (250 ng/ml). Samples were analysed by HPLC-MS/MS analysis.
(§2) Plasma stability was calculated as percentage remaining after 1 and 5 hours by dividing the peak area at 1 or 5 hours by the area of the peak at time 0. […] The other compounds of the invention behave similarly.

[2] = Plasma stability in human plasma; format: in vitro ADME; settings: 37° C.
Protocol: as §1, §2

Measured: plasma stability, percentage remaining

O=C(OC(c1cccc(F)c1)c1cccc(F)c1)O[C@H]1C[N+]2(CC(=O)c3cccs3)CCC1CC2.[Cl-] [Compound 1, (R)-3-[Bis-(3-fluoro-phenyl)-methoxycarbonyloxy]-1-(2-oxo-2-thiophen-2-yl-ethyl)-1-azonia-bicyclo[2.2.2]octane; chloride]
less than 2%: [1]; after 1 hour of incubation | [1]; after 5 hours of incubation | [2]; after 1 hour of incubation | [2]; after 5 hours of incubation
